According to PMC8584985, “Characterization of a new type of neuronal 5-HT G- protein coupled receptor in the cestode nervous system” (PLoS ONE, 2021):

Columns and labels:
Format in all cases: cell-based, Echinococcus canadensis
Eca-5-HT1a [1] = test: FLIPR calcium assay, agonist concentration-response
Eca-5-HT1a [2] = tested on: T1, Eca-5-HT1a; test: FLIPR calcium assay on mutant receptor
T1 construct: full-length mutant in HEK293-Gα15 cells

Eca-5-HT1a [3] = tested on: T2, Eca-5-HT1a; test: FLIPR calcium assay (Fluo-4), HEK293-GNA15 cells transiently expressing the receptor; a stable line gave EC50 […]
T2 construct: full-length, human codon optimized cDNA in HEK293-GNA15 cells

`COc1ccc2[nH]cc(CCN)c2c1` [5-MTT, 5-methoxytryptamine] was tested, and the EC50 (Eca-5-HT1a [1]) was 98 ± 50 nM.
With `CC(N)Cc1c[nH]c2ccc(O)cc12` (stereo not drawn) [α-MTS, α-methylserotonin] the EC50 (Eca-5-HT1a [1]) was 2730 ± 730 nM.
`NCCc1c[nH]c2ccc(O)cc12` [serotonin] gave an EC50 (Eca-5-HT1a [2]) of 11500 nM and an EC50 (Eca-5-HT1a [3]) of 7.74 ± 0.63 nM.
